Measured values reported in PMC12362433, “Systematic Determination of the Impact of Structural Edits on Peptide Accumulation into Mycobacteria” (ACS Chemical Biology, 2025).
Bridge positions count the residues as written; N and C are the ends. Square brackets hold non-standard residues; d marks the D form. Peptide text beside a SMILES is read from it. * marks the point of attachment. Lys(N3) = [N-]=[N+]=NCCCC[C@H](N)C(=O)O; Azidoacetyl = [N-]=[N+]=NCC(=O)*; NMeF = CN[C@@H](Cc1ccccc1)C(=O)O; NMeT = CN[C@H](C(=O)O)[C@@H](C)O; NMeL = CN[C@@H](CC(C)C)C(=O)O; dNMeL = CN[C@H](CC(C)C)C(=O)O; NMeK = CN[C@@H](CCCCN)C(=O)O; NMeV = CN[C@H](C(=O)O)C(C)C

Legend:
[1] = Serum stability assay in mouse serum; assay type: in vitro ADME
Procedure: Serum stability assay. Time course degradation in mouse serum was evaluated for peptides Lin0, Cyc0, Nmet0 and Nmet9. Compounds were incubated in mouse serum at a concentration of 1.0 mM to a total of 200 μL at 37 °C. At each time point (0, 15, 30, 60 min), 4 0 μL of the solution was aliquoted and diluted in a 1:1 solution o f H2O/CH3CN (101 μL) containing trichloroacetic acid (9 μL) and 100 μM of internal standard Fm o c -L-phenylalanine. This mixture was incubated in ice for 5 min to precipitate serum proteins.
The samples were then centrifuged at 21,000×g for 5 min. 140 μL of the supernatant was then transferred to a filter tube and centrifuged again at 21,000× g for 5 min to filter. 110 μL of the filtrate was then analyzed using Phenomenex Luna 5 µm C8(2) on RP-HPLC; gradient elution in H2O/CH 3CN with 0.1% TFA at 1 mL/min. Peptide identity was confirmed via peak collection and subsequent matrix-assisted laser desorption ionization time-of-flight (MALDI-TOF) mass spectroscopy (Shimadzu 8020). To eliminate variations in the overall signal intensity, area under the curve (AUC) for the peptides of interest at each time point was normalized to the AUC of the internal standard Fm o c -L-phenylalanine, the concentration of which was predetermined. These normalized AUC values were then further normalized to the “0 min” time point which was set to 100%. […]

Msm = assay type: cell-based, Mycobacterium smegmatis; conditions: against Msm; for MIC value: 48 h, three biological replicates
Procedure: Minimum inhibitory concentration (MIC) assay. Msm cells were inoculated from the glycerol stock to the according media and grown for 24 hours until 0.5- 0.6 OD. Testing peptides were dissolved in the 7H9 growth media mentioned above and made into serial dilutions from 128 µM. 200 µL of each concentration was added to a deep well 96-well plate – with each concentration added in triplicates. The cells were diluted […] to OD of around 0.05 with fresh 7H9 growth media. […] of diluted cells were added to the deep well plate each well and mixed well with the peptide solution. The plate was covered by an adhesive porous film and incubated at 37 °C with shaking at 250 rpm for 48 h. The contents from each well were then transferred to a flat-bottom 96-well plate for MIC value determination. MIC values were determined both visually and readings of OD (wells OD < 0.1) from a Biotek Synergy H1 microplate reader at 600 nm.

Msm cells = conditions: 25 μM TetD labeling; microscopy and EtBr accumulation/efflux
Procedure: Ethidium bromide (EtBr) whole-cell accumulation assay. To a 96-well plate, 90 µL of
T etD -modified Msm cells were added in triplicate. Next, 5 µL of 1 mM peptide stock
solutions were added to yield a final concentration of 50 µM. The volume in each well was
made up to 100 µL using PBS. To the blank and PBS control wells, 10 µL of PBS was
added at this point. For the blank wells, 90 µL of unlabeled cells were added in triplicate.
The plates were then incubated at 37 °C for the same duration as the corresponding PAC -
MAN assay incubation duration for that library. The cells were centrifuged for 2 min at
3000× g, and the supernatant was discarded. The pellets were then washed with 100 µL
PBST twice and finally resuspended in 100 µL of PBST. 95 µL of these cells were then
transferred to corresponding wells in a 96 -well, black, flat-bottomed plate. To each well,
5 µL of 100 µM EtBr (5 µM final) was added. The fluorescent intensities were measured
by a Biotek Synergy H1 microplate reader 60 m post -treatment with EtBr, with continuous
orbital shaking. Wavelengths: ethidium bromide, excitation 530 nm/emission 590 nm.

Compound	MIC value (Msm)	also measured
CC(=O)N[C@@H](CCCCN=[N+]=[N-])C(=O)N[C@@H](CC(C)C)C(=O)N[C@@H](CO)C(=O)N[C@@H](CCCCN)C(=O)N[C@@H](CO)C(=O)N[C@@H](Cc1ccccc1)C(N)=O [Lin0] (Ac-[Lys(N3)]LSKSF-NH2)		time to full degradation in serum [1]: ≤ 1 h
CC(C)C[C@H](NC(=O)[C@@H]1CCCN1C(=O)[C@H](CC(C)C)NC(=O)[C@H]([C@@H](C)O)N(C)C(=O)[C@@H]1CCCN1C(=O)[C@H](C(C)C)N(C)C(=O)CN=[N+]=[N-])C(=O)N(C)[C@H](C(=O)N1CCC[C@H]1C(=O)N(C)[C@H](CC(C)C)C(=O)NCC(N)=O)C(C)C [grisMeLin] (Azidoacetyl-[NMeV]P[NMeT]LPL[NMeV]P[dNMeL]G-NH2)	> 64 µM	fold increase in MIC value relative to grisMeCyc (Msm; loss of macrocyclization): > 32 fold
CC(C)C[C@@H]1NC(=O)[C@@H]2CCCN2C(=O)[C@H](CC(C)C)NC(=O)[C@@H](N(C)C(=O)[C@@H]2CCCN2C(=O)[C@H](C(C)C)N(C)C(=O)CN=[N+]=[N-])[C@@H](C)OC(=O)CNC(=O)[C@@H](CC(C)C)N(C)C(=O)[C@@H]2CCCN2C(=O)[C@H](C(C)C)N(C)C1=O [grisMeCyc] (Azidoacetyl-[NMeV]P[NMeT]LPL[NMeV]P[dNMeL]G; ester 3-C)	2 µM	
CC(C)C[C@@H]1NC(=O)[C@@H]2CCCN2C(=O)[C@H](CC(C)C)NC(=O)[C@@H](NC(=O)[C@@H]2CCCN2C(=O)[C@@H](NC(=O)CN=[N+]=[N-])C(C)C)[C@@H](C)OC(=O)CNC(=O)[C@@H](CC(C)C)NC(=O)[C@@H]2CCCN2C(=O)[C@H](C(C)C)NC1=O [grisCyc] (Azidoacetyl-VPTLPLVP[dL]G; ester 3-C)	> 64 µM	
CC(C)C[C@@H](C(=O)N(C)[C@@H](CCCCN)C(=O)N(C)[C@@H](CC(C)C)C(=O)N(C)[C@@H](Cc1ccccc1)C(N)=O)N(C)C(=O)[C@H](CCCCN)N(C)C(=O)CN=[N+]=[N-] [Nmet5] (Azidoacetyl-[NMeK][NMeL][NMeK][NMeL][NMeF]-NH2)		serum stability (in words) ([1]; mouse serum, 37 °C, over 1 h): considerably greater serum stability than peptide Nmet0
CC(C)C[C@H](NC(=O)[C@@H]1CCCN1C(=O)[C@H](CC(C)C)NC(=O)[C@@H](NC(=O)[C@@H]1CCCN1C(=O)[C@@H](NC(=O)CN=[N+]=[N-])C(C)C)[C@@H](C)O)C(=O)N[C@H](C(=O)N1CCC[C@H]1C(=O)N[C@H](CC(C)C)C(=O)NCC(N)=O)C(C)C [grisLin] (Azidoacetyl-VPTLPLVP[dL]G-NH2)	> 64 µM	
C[C@H](NC(=O)CCC(=O)N1Cc2ccccc2C#Cc2ccccc21)C(=O)N[C@H](CCC(=O)N[C@@H](CCCCN)C(=O)N[C@H](C)C(=O)O)C(N)=O [TetD]		cell morphology and cell envelope integrity after labeling (Msm cells): no significant changes in cell morphology or cell envelope integrity
